# Source: US20210052600A1, “THERAPEUTIC AGENTS FOR STRESS URINARY INCONTINENCE AND INCOTINENCE OF FECES” (Takeda Pharmaceutical Company Limited, priority 2017, published 2021)
# Where two headings read alike, the source gives them in different places.
# Key:
# urethral resistance = test: Rat urethral resistance (LPP) measured by high speed infusion of saline into the bladder; format: in vivo; details: for LPP Post / LPP Increase / LPP Pre: Table 8, mean ± SEM; for LPP Post: 30 minutes after administration; for LPP Increase: Post minus Pre; for LPP Pre: before administration
# Description: The rats were anesthetized with isoflurane. Their spinal cord was transected at the T8-T9 (the eighth thoracic cord—the ninth thoracic cord) level. After opening of the bladder dome, two polyethylene tubes (PE-100) were inserted into the bladder. The incised portion of the bladder was closed with sutures, and the other incisions were also closed. The rats were placed in Bollman cages. The catheter for intravesical pressure measurement was connected to a pressure transducer, while the catheter for saline filling was connected to a syringe filled with Evans Blue-dyed saline. Change in intravesical pressure was recorded using the pressure transducer via an electric signal amplifier and an analog-to-digital converter. After recovery of the animals from anesthesia, the intravesical pressure measurement was started, and saline was infused at a speed of 0.1 mL/sec into the bladder using an infusion pump. The infusion was stopped when the leakage of the saline from the urethral orifice was observed. Immediately thereafter, the bladder was emptied by releasing the pressure. In this operation, the peak of recorded intravesical pressure during the saline infusion was used as LPP in this Example. This measurement was repeated, and the average LPP from the last three measurements was used as the LPP value of the trial. The mean from 2 such trials was used as a Pre value. 0.5% MC was used as the vehicle. […] The difference in LPP from the Pre value (increased amount of LPP) was calculated. Regarding change in LPP before and after drug administration, the differences between the mean values of the drug-treated and vehicle-treated groups were analyzed by the one-tailed Williams' test.
# [1] = Body weight of obese rats (DIO-F344) under continuous subcutaneous administration and effective plasma concentration; format: in vivo, rat; details: for Change in body weight (% change): mean ± SEM
# Method: Forty male DIO-F344 rats bred with high fat diet (42 kcal % fat) were used. On the day before surgery, the rats were grouped on the basis of their body weight. Compound A′ and Compound B′ were each dissolved in saline. Osmotic pumps filled with the Compound A′ or Compound B′ solution were subcutaneously implanted in the rats under isoflurane anesthesia. The body weight just after surgery was used as a Pre value, and the body weight was measured every day until 14 days after surgery. Regarding the averages in the body weight on Day 14, the difference in the mean averages of the drug-treated group and the vehicle-treated group was analyzed by the one-tailed Williams' test.
# The average Day 14 plasma concentration from the values of each rat measured in the morning and afternoon was used as a plasma concentration for the animal. The rate of change in body weight was calculated from the values measured just after and 14 days after osmotic pump implantation. The rate (average rate) of change of the vehicle group was subtracted from that of each drug-administered rat to plot the plasma concentration and the change in body weight. The plasma concentration at which the drug lowered the body weight by 3.8% was calculated by linear regression analysis.
# anus-closing functions = test: Rat anus-closing functions (Anal LPP) measured by high speed infusion of saline into the rectum; format: in vivo; details: 1 mg/kg i.v.; 5 minutes after administration; mean ± SEM
# Description: (§1) Thirty six female SD rats were used. After overnight fasting, rats were intraperitoneally administered with urethane for anesthesia, and isoflurane inhalation was further added during surgery. The abdomen was incised to expose the rectum, and a small incision of the rectum was made. A polyethylene catheter (SP61, Natsume) was inserted into the rectum through the rectum incision, and the tip of the catheter was positioned around 5 mm from the anal orifice. The other end of the catheter was connected with a pressure transducer and an infusion pump via three-way stopcocks, and the change in pressure in the rectum was measured using the pressure transducer, an electric signal amplifier, and an analog-to-digital converter. For administrating drugs, a polyethylene catheter (SP45, Natsume) was inserted into the femoral vein after exposing the vein by small incision.
# After recovery period from surgery, while saline was infused at a speed of 0.1 mL/sec into the rectum using an infusion pump, change in the measured pressure—was observed. The infusion was stopped when the leakage of the saline from the anal orifice was observed. In the procedure, sudden decrease in the pressure was observed during the infusion with the leakage of saline from the anal orifice. The peak value of the pressure recorded in the rectum during the course of the procedures was defined as “an Anal LPP” in this Example. […] The Anal LPP was again measured in the same way 5 minutes after drug administration. The difference in Anal LPP from the Pre value (increased amount of Anal LPP) was calculated. Regarding change in Anal LPP before and after drug administration, the differences between the mean values of the drug-treated and vehicle-treated groups were analyzed by the one-tailed Williams' test or Student's t-test.
# [2] = cited from earlier work
# [3] = cited from earlier work; remark: listed apart in the source
# [4] = system: urethral resistance increasing effect of Compound A′; test: Influence of antagonists (SB 242084, methiothepin) on urethral resistance increasing effect of Compound A′ in rats; format: in vivo, rat; details: mean ± SEM; for LPP Increase: Post minus Pre; for LPP Pre: before administration
# Method: Ninety female rats of SD strain were used. […] Isoflurane inhalation was added during the surgery, if necessary. In the experiment with intrathecal administration, the dura mater was exposed by laminectomy and then partially opened by incision, through which a catheter (PE-10) filled with saline was then implanted at the level of the L6-S1 site, followed by the closing of the incision. After opening of the abdomen, a catheter (PE-90) was inserted into the bladder. In order to secure reduced urethral resistance, unilateral nerve to iliococcygeus and pubococcygeus muscles was transected. For intraduodenal administration, another catheter (PE-50) was inserted into the duodenum in advance. The abdominal muscle and skin were each closed with sutures. Two (right and left) sites of abdominal skin near the diaphragm were cut to expose abdominal muscle. The bladder was emptied through the catheter, followed by the injection of 0.2 to 0.3 mL of Evans blue solution. Change in intravesical pressure was recorded using the bladder catheter via a pressure transducer, an electric signal amplifier, and an analog-to-digital converter. While change in intravesical pressure was recorded, the presence or absence of fluid leakage from the urethral orifice was observed under the electrical stimulation of the exposed abdominal muscle using an electrical stimulator and an isolator. […] The peak of the intravesical pressure during the stimulation of the abdominal muscle was measured, and the lowest pressure at which the fluid leakage was observed among the trials was defined as LPP for the electrical abdominal muscle stimulation method. In order to examine whether the urethral resistance increasing effect of Compound A′ is based on its agonistic potency on 5-HT2C receptors, SB 242084, methiothepin, or a vehicle was intravenously administered, and Compound A′ or a vehicle was intraduodenally administered 5 minutes later. SB 242084 was dissolved in a mixed solution of N,N-dimethylacetamide and polyethylene glycol 400 (1:1) and administered at 0.03 mg/0.5 mL/kg, 0.1 mg/0.5 mL/kg and 0.3 mg/0.5 mL/kg. Methiothepin was dissolved in saline and administered at 0.03 mg/0.5 mL/kg. 0.1 mg/0.5 mL/kg and 0.3 mg/0.5 mL/kg. Compound A′ was suspended in 0.5% MC and administered at 3 mg/mL/kg. LPP was measured again 30 minutes after Compound A′ administration. In order to examine where Compound A′ works in the body to increase urethral resistance, the blocking of the effect of Compound A′ was confirmed by blocking the functions of Compound A′ by giving methiothepin at a particular site in the body. Particularly, in the experiment with intrathecal administration, methiothepin or a vehicle was intrathecally administered, and Compound A′ or a vehicle was intraduodenally administered 5 minutes later. Methiothepin was dissolved in saline and 20 μL of the obtained solution was administered. Compound A′ was suspended in 0.5% MC and administered at 3 mg/mL/kg. LPP was measured again 30 minutes after Compound A′ administration.
# Regarding change in LPP before and after drug administration, the differences between the mean values of the Compound A′-treated and vehicle-treated groups were analyzed by the Student's t test or the Welch's test. In order to analyze the influence of the antagonists on the effect of Compound A′, the differences between the mean values of the SB 242084- or methiothepin- and Compound A′-administered group and the vehicle- and Compound A′-administered group were analyzed by the one-tailed Williams' test.
# [5] = system: anus-closing function increasing effect of Compound A′; test: Influence of SB 242084 on Compound A′-induced rat anus-closing function increasing effect (Anal LPP); format: in vivo; details: SB242084 0.3 mg/kg i.v. then Compound A′ 1 mg/kg i.v.; 5 minutes after Compound A′; n=9
# Method: as §1, with “Eighteen” for “Thirty six”, “was” for “was further”
# After recovery period from surgery, while saline was infused at a speed of 0.1 mL/sec into the rectum using an infusion pump, change in the measured pressure—was observed. […] The peak value of the pressure recorded in the rectum during the course of the procedures was defined as “an Anal LPP” in this Example. […] The Anal LPP was again measured in the same way 5 minutes after the administration with Compound A′. The difference in Anal LPP from the Pre value (increased amount of Anal LPP) was calculated. […]
# [6] = SB 242084 0.03 mg/kg i.v. + Compound A′ 3 mg/kg i.d.
# [7] = SB 242084 0.1 mg/kg i.v. + Compound A′ 3 mg/kg i.d.
# [8] = SB 242084 0.3 mg/kg i.v. + Compound A′ 0 mg/kg i.d.
# [9] = SB 242084 0.3 mg/kg i.v. + Compound A′ 3 mg/kg i.d.
structure (smiles),measurement,setting,value
"C[C@H]1CNCCc2ccc(Cl)cc21 [Compound B′, (R)-8-chloro-1-methyl-2,3,4,5-tetrahydro-1H-3-benzazepine]",LPP Post,urethral resistance; 1 mg/kg p.o.,77.0 ± 3.6 cm H2O
same,LPP Increase,urethral resistance; 1 mg/kg p.o.,9.0 ± 1.9 cm H2O
same,LPP Pre,urethral resistance; 1 mg/kg p.o.,67.9 ± 2.5 cm H2O
same,LPP Post,urethral resistance; 2.5 mg/kg p.o.,88.1 ± 3.5 cm H2O
same,LPP Increase,urethral resistance; 2.5 mg/kg p.o.,19.6 ± 1.7 cm H2O
same,LPP Pre,urethral resistance; 2.5 mg/kg p.o.,68.5 ± 3.8 cm H2O
same,LPP Post,urethral resistance; 5 mg/kg p.o.,85.4 ±4.1 cm H2O
same,LPP Increase,urethral resistance; 5 mg/kg p.o.,25.1 ± 2.7 cm H2O
same,LPP Pre,urethral resistance; 5 mg/kg p.o.,60.2 ± 5.1 cm H2O
same,"LPP10, the dose that increases LPP by 10 cm H2O","urethral resistance; oral administration, high speed saline infusion method",1.2 mg/kg
same,Change in body weight (% change),"[1]; 0.45 mg/animal/day s.c. osmotic pump, day 3",−0.9 ± 0.2 % change
same,Change in body weight (% change),"[1]; 0.45 mg/animal/day s.c. osmotic pump, day 7",−1.4 ± 0.5 % change
same,Change in body weight (% change),"[1]; 0.45 mg/animal/day s.c. osmotic pump, day 10",−3.3 ± 0.4 % change
same,Change in body weight (% change),"[1]; 0.45 mg/animal/day s.c. osmotic pump, day 14",−3.7 ± 0.6 % change
same,Change in body weight (% change),"[1]; 1.35 mg/animal/day s.c. osmotic pump, day 3",−1.4 ± 0.3 % change
same,Change in body weight (% change),"[1]; 1.35 mg/animal/day s.c. osmotic pump, day 7",−2.5 ± 0.5 % change
same,Change in body weight (% change),"[1]; 1.35 mg/animal/day s.c. osmotic pump, day 10",−4.6 ± 0.3 % change
same,Change in body weight (% change),"[1]; 1.35 mg/animal/day s.c. osmotic pump, day 14",−5.4 ± 0.2 % change
same,Change in body weight (% change),"[1]; 4.5 mg/animal/day s.c. osmotic pump, day 3",−3.1 ± 0.6 % change
same,Change in body weight (% change),"[1]; 4.5 mg/animal/day s.c. osmotic pump, day 7",−4.8 ± 0.9 % change
same,Change in body weight (% change),"[1]; 4.5 mg/animal/day s.c. osmotic pump, day 10",−7.1 ± 0.7 % change
same,Change in body weight (% change),"[1]; 4.5 mg/animal/day s.c. osmotic pump, day 14",−8.6 ± 1.0 % change
same,plasma concentration at which the drug lowered the body weight by 3.8%,"[1]; DIO-F344 rats, day 14, vehicle-subtracted, linear regression analysis",140 ng/mL
same,Anal LPP Increase,anus-closing functions,13.8 ± 5.7 cmH2O
same,half-life in blood,[2]; after a single dose of 10 mg,11.1 h
same,maximum blood concentration,[2]; after a single dose of 10 mg,46.0 ng/mL
same,maximum blood concentration,[2]; immediate release formulation 10 mg once daily (Blossom trial),40 ng/mL
same,maximum blood concentration (Cmax),[2]; immediate release formulation 10 mg twice daily (Blossom trial),56 ng/mL
same,patients with adverse events,[3]; 10 mg bid group,57.9%
same,subjects with headache,[3]; 10 mg bid group,32.5%
same,subjects with nausea,[3]; 10 mg bid group,8.8%
same,difference of body weight loss from placebo,[3]; 10 mg once daily (QD) (Blossom trial),2.6%
same,"weight loss, difference from placebo group","[3]; obese patients, 10 mg twice daily (Blossom trial)",3.8%
Cc1cc2c(cc1Cl)N(C(=O)Nc1ccc(Oc3cccnc3C)nc1)CC2 [SB 242084],LPP Post,"[4]; SB 242084 0.03 mg/kg i.v. + Compound A′ 3 mg/kg i.d., 30 minutes after Compound A′",73.9 ± 8.7 cmH2O
same,LPP Increase,[4]; [6],29.9 ± 8.4 cmH2O
same,LPP Pre,[4]; [6],44.0 ± 7.4 cmH2O
same,LPP Post,"[4]; SB 242084 0.1 mg/kg i.v. + Compound A′ 3 mg/kg i.d., 30 minutes after Compound A′",57.6 ± 12.2 cmH2O
same,LPP Increase,[4]; [7],12.6 ± 6.3 cmH2O
same,LPP Pre,[4]; [7],45.0 ± 6.7 cmH2O
same,LPP Post,"[4]; SB 242084 0.3 mg/kg i.v. + Compound A′ 0 mg/kg i.d., 30 minutes after i.d. administration",49.3 ± 8.7 cmH2O
same,LPP Increase,[4]; [8],3.4 ± 4.6 cmH2O
same,LPP Pre,[4]; [8],45.9 ± 5.4 cmH2O
same,LPP Post,"[4]; SB 242084 0.3 mg/kg i.v. + Compound A′ 3 mg/kg i.d., 30 minutes after Compound A′",48.0 ± 6.9 cmH2O
same,LPP Increase,[4]; [9],3.8 ± 4.4 cmH2O
same,LPP Pre,[4]; [9],44.3 ± 7.0 cmH2O
same,Anal LPP Increase,[5],-2.6±4.1 cmH2O
